Test results reported in patent US11584775B2, “C4-modified oleanolic acid derivatives for inhibition of IL-17 and other uses” (REATA PHARMACEUTICALS, INC., priority 2015, dated 2023).

Tests used:
[1] = system: IFNγ-induced Nitric Oxide production; experiment: Nitric oxide production assay in RAW 264.7 mouse macrophages; type: cell-based; settings: RAW264.7, suppression of IFNγ-induced NO production normalized to cell viability (WST-1), RAW 264.7, 24 hours IFNγ
Procedure, shortened: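 Cells pre-treated 2 h with compound (0.4-200 nM or 2-1000 nM) in RPMI 1640 + 0.5% FBS, then stimulated with recombinant mouse IFNγ for 24 h at 37 °C. Nitrite measured by Griess reagent, viability by WST-1; IC50 from NO suppression normalized to viability and to DMSO/IFNγ controls.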

human RORγ = target: T1, human RORγ (Homo sapiens, UniProt P51449); experiment: RORγ assay (GAL4-RORγ hybrid luciferase reporter, inverse-agonist activity); type: cell-based; settings: GAL4-RORγ hybrid reporter cells, 23 hours
T1 sequence (P51449 269-508 limits assumed): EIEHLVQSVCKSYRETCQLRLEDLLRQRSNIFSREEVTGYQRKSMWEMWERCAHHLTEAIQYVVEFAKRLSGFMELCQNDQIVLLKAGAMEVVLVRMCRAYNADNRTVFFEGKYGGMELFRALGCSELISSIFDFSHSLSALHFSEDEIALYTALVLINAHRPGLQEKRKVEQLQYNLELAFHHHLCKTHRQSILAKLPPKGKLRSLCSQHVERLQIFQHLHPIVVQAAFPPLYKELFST
Procedure, shortened: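 Human cell line expressing GAL4-DBD/RORγ hybrid with UAS-driven luciferase, treated in triplicate with compound (0.4–200 nM or 2–1000 nM) for 23 h at 37 °C. Luminescence normalized to DMSO; viability measured in parallel by multiplex assay. IC50 for RORγ and viability by variable-slope nonlinear regression.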

hIL17 = experiment: IL-17 release from differentiated primary human T-cells (IL-17A HTRF assay); type: cell-based; settings: inhibition of IL-17A levels; primary human CD4+ T cells differentiated into Th17 cells, 46-hour incubation
Procedure, shortened: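 Cryopreserved primary human CD4+ T cells were activated with anti-CD3/CD28 beads and driven to Th17 with TGF-β, IL-6, IL-23 and IL-1β in the presence of compound (2-500 nM or 4-1000 nM) for 46 h at 37° C. Supernatant IL-17A was quantified by HTRF against a standard curve and normalized to DMSO. IC50s came from variable-slope fits, with viability read by CyQuant.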

NRF2 = experiment: AREc32 luciferase reporter assay; type: cell-based, human; settings: EC2×: concentration required to increase GST ARE Luciferase reporter activity by 2-fold; AREc32 cells, 19 hours
Procedure, shortened: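 AREc32 cells (MCF-7 stably carrying eight rat GSTA2 ARE copies driving firefly luciferase) treated 19 h with compound (0.4–200 nM or 2–1000 nM), triplicate. Luminescence normalized to DMSO as fold-induction; variable-slope fit capped at 50-fold; EC2× = concentration giving 2-fold induction.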

Row | SMILES | IC50 [1] | IC50 (human RORγ) | IC50 (hIL17) | EC2x: concentration giving 2-fold induction of ARE luciferase reporter (NRF2)
1 | CC1(C)CC[C@]2(NC(=O)C(C)(F)F)CC[C@]3(C)[C@H](C(=O)C=C4[C@@]5(C)C=C(C#N)C(=O)[C@@](C)(CO)[C@@H]5CC[C@]43C)[C@@H]2C1 [Compound T28, N-((4aS,6aR,6bS,8aR,9R,12aS,14aR,14bS)-11-cyano-9-(hydroxymethyl)-2,2,6a,6b,9,12a-hexamethyl-10,14-dioxo-1,3,4,5,6,6a,6b,7,8,8a,9,10,12a,14,14a,14b-hexadecahydropicen-4a(2H)-yl)-2,2-difluoropropanamide] | 21.1 nM | 463 nM | 67 nM | 117 nM
2 | CC(=O)OC[C@]1(C)C(=O)C(C#N)=C[C@]2(C)C3=CC(=O)[C@@H]4[C@@H]5CC(C)(C)CC[C@]5(NC(=O)C(C)(F)F)CC[C@@]4(C)[C@]3(C)CC[C@H]21 [Compound T29, ((4R,4aR,6aS,6bR,8aS,12aS,12bR,14bS)-2-cyano-8a-(2,2-difluoropropanamido)-4,6a,6b,11,11,14b-hexamethyl-3,13-dioxo-3,4,4a,5,6,6a,6b,7,8,8a,9,10,11,12,12a,12b,13,14b-octadecahydropicen-4-yl)methyl acetate] | 118 nM | 141 nM | 37 nM | 360 nM
3 | CN(C)C(=O)[C@]12CCC(C)(C)C[C@H]1[C@H]1C(=O)C=C3[C@@]4(C)C=C(C#N)C(=O)[C@@](C)(O)[C@@H]4CC[C@@]3(C)[C@]1(C)CC2 [Compound T30, (4aS,6aR,6bS,8aR,9S,12aS,14aR,14bS)-11-cyano-9-hydroxy-N,N,2,2,6a,6b,9,12a-octamethyl-10,14-dioxo-1,3,4,5,6,6a,6b,7,8,8a,9,10,12a,14,14a,14b-hexadecahydropicene-4a(2H)-carboxamide] | 173 nM | 164 nM | 59 nM | 448 nM
4 | CC1(C)CC[C@@]23CC[C@@]4(C)[C@]5(C)CC[C@@H]6[C@](C)(C=C(C#N)C(=O)[C@@]6(C)CO)C5=CC(=O)[C@]4(OC2=O)[C@@H]3C1 [Compound T31, (4R,4aR,6aR,6bS,8aS,12aR,12bS,14bS)-4-(hydroxymethyl)-4,6a,6b, 11,11,14b-hexamethyl-3,13,16-trioxo-4,4a,5,6,6a,6b,7,8,10,11,12,12a,13,14b-tetradecahydro-3H,9H-12b,8a-(epoxymethano)picene-2-carbonitrile] | 10.5 nM | 177 nM | 20 nM | 21 nM
5 | CC(=O)OC[C@]1(C)C(=O)C(C#N)=C[C@]2(C)C3=CC(=O)[C@]45OC(=O)[C@@]6(CCC(C)(C)C[C@H]64)CC[C@@]5(C)[C@]3(C)CC[C@H]21 [Compound T32, ((4R,4aR,6aR,6bS,8aS,12aR,12bS,14bS)-2-cyano-4,6a,6b, 11,11,14b-hexamethyl-3,13,16-trioxo-4,4a,5,6,6a,6b,7,8,10,11,12,12a,13,14b-tetradecahydro-3H,9H-12b,8a-(epoxymethano)picen-4-yl)methyl acetate] | 115 nM | 118 nM | 28 nM | 243 nM
6 | CC1(C)CC[C@@]23CC[C@@]4(C)[C@]5(C)CC[C@H]6[C@](C)(O)C(=O)C(C#N)=C[C@]6(C)C5=CC(=O)[C@]4(OC2=O)[C@@H]3C1 [Compound T33, (4S,4aR,6aR,6bS,8aS,12aR,12bS,14bS)-4-hydroxy-4,6a,6b, 11,11,14b-hexamethyl-3,13,16-trioxo-4,4a,5,6,6a,6b,7,8,10,11,12,12a,13,14b-tetradecahydro-3H,9H-12b,8a-(epoxymethano)picene-2-carbonitrile] | 79.9 nM | 220 nM | 25 nM | 120 nM
7 | COC(=O)[C@]1(C)C(=O)C(C#N)=C[C@]2(C)C3=CC(=O)[C@]45OC(=O)[C@@]6(CCC(C)(C)C[C@H]64)CC[C@@]5(C)[C@]3(C)CC[C@@H]12 [Compound T34, methyl (4S,4aR,6aR,6bS,8aS,12aR,12bS,14bS)-2-cyano-4,6a,6b, 11,11,14b-hexamethyl-3,13,16-trioxo-4,4a,5,6,6a,6b,7,8,10,11,12,12a,13,14b-tetradecahydro-3H,9H-12b,8a-(epoxymethano)picene-4-carboxylate] | 383 nM | 268 nM | 46 nM | 377 nM
8 | CNC(=O)[C@]1(C)C(=O)C(C#N)=C[C@]2(C)C3=CC(=O)[C@]45OC(=O)[C@@]6(CCC(C)(C)C[C@H]64)CC[C@@]5(C)[C@]3(C)CC[C@@H]12 [Compound T35, (4S,4aR,6aR,6bS,8aS,12aR,12bS,14bS)-2-cyano-N,4,6a,6b, 11,11,14b-heptamethyl-3,13,16-trioxo-4,4a,5,6,6a,6b,7,8,10,11,12,12a,13,14b-tetradecahydro-3H,9H-12b,8a-(epoxymethano)picene-4-carboxamide] | > 1000 nM | 413 nM | 68 nM | >1000 nM
9 | CC1(C)CC[C@@]23CC[C@@]4(C)[C@]5(C)CC[C@H]6[C@](C)(C(N)=O)C(=O)C(C#N)=C[C@]6(C)C5=CC(=O)[C@]4(OC2=O)[C@@H]3C1 [Compound T37, (4S,4aR,6aR,6bS,8aS,12aR,12bS,14bS)-2-cyano-4,6a,6b, 11,11,14b-hexamethyl-3,13,16-trioxo-4,4a,5,6,6a,6b,7,8,10,11,12,12a,13,14b-tetradecahydro-3H,9H-12b,8a-(epoxymethano)picene-4-carboxamide] | > 1000 nM | 1350 nM | 336 nM | >1000 nM
10 | COC(=O)[C@]12CCC(C)(C)C[C@H]1[C@@]1(O)C(=O)C=C3[C@@]4(C)C=C(C#N)C(=O)[C@@](C)(O)[C@@H]4CC[C@@]3(C)[C@]1(C)CC2 [Compound T38, methyl (4aS,6aS,6bR,8aR,9S,12aS,14aS,14bR)-11-cyano-9,14a-dihydroxy-2,2,6a,6b,9,12a-hexamethyl-10,14-dioxo-1,3,4,5,6,6a,6b,7,8,8a,9,10,12a,14,14a,14b-hexadecahydropicene-4a(2H)-carboxylate] | 57.2 nM | 177 nM | 16 nM | 80 nM
11 | COC(=O)N[C@]12CCC(C)(C)C[C@H]1[C@H]1C(=O)C=C3[C@@]4(C)C=C(C#N)C(=O)[C@@](C)(O)[C@@H]4CC[C@@]3(C)[C@]1(C)CC2 [Compound T39, methyl ((4aS,6aR,6bS,8aR,9S,12aS,14aR,14bS)-11-cyano-9-hydroxy-2,2,6a,6b,9,12a-hexamethyl-10,14-dioxo-1,3,4,5,6,6a,6b,7,8,8a,9,10,12a,14,14a,14b-hexadecahydropicen-4a(2H)-yl)carbamate] | 91.2 nM | 364 nM | 47 nM | 218 nM
12 | COC(=O)N[C@]12CCC(C)(C)C[C@H]1[C@H]1C(=O)C=C3[C@@]4(C)C=C(C#N)C(=O)[C@@](C)(CO)[C@@H]4CC[C@@]3(C)[C@]1(C)CC2 [Compound T40, methyl ((4aS,6aR,6bS,8aR,9R,12aS,14aR,14bS)-11-cyano-9-(hydroxymethyl)-2,2,6a,6b,9,12a-hexamethyl-10,14-dioxo-1,3,4,5,6,6a,6b,7,8,8a,9,10,12a,14,14a,14b-hexadecahydropicen-4a(2H)-yl)carbamate] | 24.6 nM | 698 nM | 37 nM | 130 nM
13 | COC(=O)N[C@]12CCC(C)(C)C[C@H]1[C@H]1C(=O)C=C3[C@@]4(C)C=C(C#N)C(=O)[C@@](C)(COC(C)=O)[C@@H]4CC[C@@]3(C)[C@]1(C)CC2 [Compound T41, ((4R,4aR,6aS,6bR,8aS,12aS,12bR,14bS)-2-cyano-8a-((methoxycarbonyl)amino)-4,6a,6b, 11,11,11,14b-hexamethyl-3,13-dioxo-3,4,4a,5,6,6a,6b,7,8,8a,9,10,11,12,12a,12b,13,14b-octadecahydropicen-4-yl)methyl acetate] | 151 nM | 135 nM | 35 nM | 330 nM
